In ChEMBL document CHEMBL3856204, “Chiral 6-aryl-furo[2,3-d]pyrimidin-4-amines as EGFR inhibitors” (Eur J Med Chem, 2016) one finds inhibition and IC50 data, which are given here for 3 molecules.

pIC50: −log10 of the molar value.

The target of assay [1] is Protein kinase C alpha type (Homo sapiens) (UniProt P17252). The assay can be described thus: Inhibition of recombinant full length human PRKCA expressed in baculovirus at 500 nM by Z'-LYTE assay.
Assay [2] has as its target Protein kinase C beta type (Homo sapiens) (UniProt P05771). The assay can be described thus: Inhibition of recombinant full length human PRKCB1 expressed in baculovirus at 500 nM by Z'-LYTE assay.
For assay [3], the target named is Epidermal growth factor receptor (Homo sapiens, UniProt P00533). The assay can be described thus: Inhibition of recombinant human GST-tagged EGFR cytoplasmic domain (668 to 1210 residues) expressed in baculovirus by Z'-LYTE assay.
For assay [4], the target named is Tyrosine-protein kinase ABL1 (Homo sapiens) (UniProt P00519). In words: Inhibition of His tagged recombinant full length human ABL1 expressed in baculovirus at 500 nM by Z'-LYTE assay.
Assay [5] has as its target Tyrosine-protein kinase Blk (Homo sapiens) (UniProt P51451). The assay can be described thus: Inhibition of His tagged recombinant full length human BLK expressed in baculovirus at 500 nM by Z'-LYTE assay.
The target of assay [6] is Serine/threonine-protein kinase B-raf (Homo sapiens) (UniProt P15056). In words: Inhibition of GST tagged recombinant full length human BRAF expressed in baculovirus at 500 nM by Z'-LYTE assay.
Serine/threonine-protein kinase B-raf (Homo sapiens), sequence (P15056 whole entry, the tested form may be a part): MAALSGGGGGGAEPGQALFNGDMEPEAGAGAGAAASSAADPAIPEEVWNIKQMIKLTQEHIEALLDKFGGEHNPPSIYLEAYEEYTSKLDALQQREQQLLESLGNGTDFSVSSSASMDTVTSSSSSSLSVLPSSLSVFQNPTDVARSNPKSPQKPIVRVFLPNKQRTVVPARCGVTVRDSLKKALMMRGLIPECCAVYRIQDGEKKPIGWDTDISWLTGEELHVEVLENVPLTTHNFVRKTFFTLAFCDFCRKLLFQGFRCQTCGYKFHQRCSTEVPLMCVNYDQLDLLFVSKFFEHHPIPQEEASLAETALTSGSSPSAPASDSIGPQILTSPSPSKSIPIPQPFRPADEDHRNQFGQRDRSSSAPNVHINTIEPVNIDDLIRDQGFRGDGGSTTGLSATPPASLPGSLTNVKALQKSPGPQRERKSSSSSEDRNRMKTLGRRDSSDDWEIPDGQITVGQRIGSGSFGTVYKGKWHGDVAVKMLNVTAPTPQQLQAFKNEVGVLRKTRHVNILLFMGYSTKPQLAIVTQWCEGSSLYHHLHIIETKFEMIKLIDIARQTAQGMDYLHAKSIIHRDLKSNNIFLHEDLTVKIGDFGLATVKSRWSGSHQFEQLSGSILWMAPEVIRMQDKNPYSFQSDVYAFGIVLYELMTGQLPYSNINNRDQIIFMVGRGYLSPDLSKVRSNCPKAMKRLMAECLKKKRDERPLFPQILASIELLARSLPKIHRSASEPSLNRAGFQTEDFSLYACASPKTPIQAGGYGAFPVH
Assay [7] deals with Macrophage colony-stimulating factor 1 receptor (Homo sapiens) (UniProt P07333). In words: Inhibition of His tagged recombinant human FMS cytoplasmic domain (538 to 910 residues) expressed in baculovirus at 500 nM by Z'-LYTE assay.
Assay [8] addresses Tyrosine-protein kinase CSK (Homo sapiens) (UniProt P41240). In words: Inhibition of His tagged recombinant full length human CSK expressed in Escherichia coli at 500 nM by Z'-LYTE assay.
The target in assay [9] is Receptor tyrosine-protein kinase erbB-2 (Homo sapiens) (UniProt P04626). The assay can be described thus: Inhibition of His tagged recombinant human ErbB2 cytoplasmic domain (676 to 1255 residues) expressed in baculovirus at 500 nM by Z'-LYTE assay.
Assay [10] addresses Receptor tyrosine-protein kinase erbB-4 (Homo sapiens) (UniProt Q15303). In words: Inhibition of GST tagged recombinant human ERBB4 cytoplasmic domain (708 to 993 residues) expressed in baculovirus at 500 nM by Z'-LYTE assay.
In assay [11] the target is Tyrosine-protein kinase Fgr (Homo sapiens) (UniProt P09769). In words: Inhibition of recombinant full length human C-terminal His-tagged FGR expressed in baculovirus at 500 nM by Z'-LYTE assay.
Tyrosine-protein kinase Fgr (Homo sapiens), sequence (P09769 2-529 limits assumed): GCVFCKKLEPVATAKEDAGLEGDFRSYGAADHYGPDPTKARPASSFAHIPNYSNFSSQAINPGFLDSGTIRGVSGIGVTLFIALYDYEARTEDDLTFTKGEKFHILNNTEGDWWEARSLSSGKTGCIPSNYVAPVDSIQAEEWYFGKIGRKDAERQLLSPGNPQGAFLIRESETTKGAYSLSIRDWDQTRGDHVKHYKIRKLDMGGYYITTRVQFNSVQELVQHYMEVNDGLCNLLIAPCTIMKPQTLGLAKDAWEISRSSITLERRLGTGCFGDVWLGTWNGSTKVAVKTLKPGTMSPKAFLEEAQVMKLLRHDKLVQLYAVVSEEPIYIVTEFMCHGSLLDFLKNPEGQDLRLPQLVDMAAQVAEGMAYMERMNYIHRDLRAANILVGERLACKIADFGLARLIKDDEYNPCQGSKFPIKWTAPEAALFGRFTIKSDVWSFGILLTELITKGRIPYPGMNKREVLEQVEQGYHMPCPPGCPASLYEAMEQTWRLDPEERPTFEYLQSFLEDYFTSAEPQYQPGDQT
The target of assay [12] is Vascular endothelial growth factor receptor 1 (Homo sapiens) (UniProt P17948). In words: Inhibition of GST tagged recombinant human FLT1 cytoplasmic domain (781 to 1338 residues) expressed in baculovirus at 500 nM by Z'-LYTE assay.
The target in assay [13] is Vascular endothelial growth factor receptor 3 (Homo sapiens) (UniProt P35916). The assay can be described thus: Inhibition of GST tagged recombinant human FLT4 cytoplasmic domain (800 to 1297 residues) expressed in baculovirus at 500 nM by Z'-LYTE assay.
The target in assay [14] is Tyrosine-protein kinase FRK (Homo sapiens) (UniProt P42685). In words: Inhibition of GST tagged recombinant full length human FRK expressed in baculovirus at 500 nM by Z'-LYTE assay.
Tyrosine-protein kinase FRK (Homo sapiens), sequence (P42685 whole entry): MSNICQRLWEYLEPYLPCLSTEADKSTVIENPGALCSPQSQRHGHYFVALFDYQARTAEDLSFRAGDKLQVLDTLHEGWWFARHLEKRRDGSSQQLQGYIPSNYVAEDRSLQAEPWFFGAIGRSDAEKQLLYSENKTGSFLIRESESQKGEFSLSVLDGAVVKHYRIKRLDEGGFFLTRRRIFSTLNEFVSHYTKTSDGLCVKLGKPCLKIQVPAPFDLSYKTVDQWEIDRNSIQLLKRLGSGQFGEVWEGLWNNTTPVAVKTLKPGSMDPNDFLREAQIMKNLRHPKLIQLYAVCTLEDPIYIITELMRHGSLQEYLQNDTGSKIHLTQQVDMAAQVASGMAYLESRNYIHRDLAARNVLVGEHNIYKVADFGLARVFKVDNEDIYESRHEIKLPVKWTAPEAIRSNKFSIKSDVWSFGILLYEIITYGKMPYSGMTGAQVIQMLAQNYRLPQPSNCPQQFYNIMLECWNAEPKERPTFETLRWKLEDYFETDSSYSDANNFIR
The target in assay [15] is Tyrosine-protein kinase Fyn (Homo sapiens) (UniProt P06241). The assay can be described thus: Inhibition of recombinant full length human C-terminal His-tagged FYN expressed in baculovirus at 500 nM by Z'-LYTE assay.
Tyrosine-protein kinase Fyn (Homo sapiens), sequence (P06241 2-537 limits assumed): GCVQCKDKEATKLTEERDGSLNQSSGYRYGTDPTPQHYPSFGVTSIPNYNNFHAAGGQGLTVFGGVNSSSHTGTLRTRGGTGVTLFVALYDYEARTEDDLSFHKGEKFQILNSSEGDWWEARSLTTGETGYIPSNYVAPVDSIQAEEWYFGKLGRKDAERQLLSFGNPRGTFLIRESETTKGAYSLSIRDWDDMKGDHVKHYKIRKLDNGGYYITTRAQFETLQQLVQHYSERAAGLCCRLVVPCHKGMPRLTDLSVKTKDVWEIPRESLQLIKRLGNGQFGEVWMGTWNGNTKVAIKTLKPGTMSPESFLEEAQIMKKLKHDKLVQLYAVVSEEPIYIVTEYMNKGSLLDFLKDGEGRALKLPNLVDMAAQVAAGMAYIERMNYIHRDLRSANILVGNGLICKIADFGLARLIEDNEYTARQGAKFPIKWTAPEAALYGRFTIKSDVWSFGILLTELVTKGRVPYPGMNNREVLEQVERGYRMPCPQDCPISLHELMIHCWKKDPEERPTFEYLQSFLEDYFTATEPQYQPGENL
The target of assay [16] is Tyrosine-protein kinase JAK2 (Homo sapiens) (UniProt O60674). In words: Inhibition of GST tagged recombinant human JAK2 (809 to 1153 + 9 residues) expressed in baculovirus at 500 nM by Z'-LYTE assay.
In assay [17] the target is Mast/stem cell growth factor receptor Kit (Homo sapiens) (UniProt P10721). The assay can be described thus: Inhibition of His tagged recombinant human KIT cytoplasmic domain (544 to 976 residues) expressed in baculovirus at 500 nM by Z'-LYTE assay.
Assay [18] has as its target Tyrosine-protein kinase Lyn (Homo sapiens) (UniProt P07948). In words: Inhibition of recombinant full length human N-terminal GST tagged LYN A expressed in insect cells at 500 nM by Z'-LYTE assay.
Assay [19] shares this target. The assay can be described thus: Inhibition of His tagged C-terminal recombinant full length human LYN B expressed in baculovirus at 500 nM by Z'-LYTE assay.
In assay [20] the target is Mitogen-activated protein kinase 1 (Homo sapiens) (UniProt P28482). In words: Inhibition of GST tagged recombinant full length human ERK2 expressed in Escherichia coli at 500 nM by Z'-LYTE assay.
Assay [21] concerns the target Mitogen-activated protein kinase 14 (Homo sapiens) (UniProt Q16539). In words: Inhibition of GST tagged recombinant full length human p38 alpha expressed in Escherichia coli at 500 nM by Z'-LYTE assay.
Assay [22] has as its target Mitogen-activated protein kinase 8 (Homo sapiens) (UniProt P45983). In words: Inhibition of His tagged recombinant full length human JNK1 expressed in baculovirus at 500 nM by Z'-LYTE assay.
Assay [23] concerns the target Serine/threonine-protein kinase pim-2 (Homo sapiens) (UniProt Q9P1W9). The assay can be described thus: Inhibition of GST tagged recombinant full length human PIM2 expressed in baculovirus at 500 nM by Z'-LYTE assay.
The target in assay [24] is Proto-oncogene tyrosine-protein kinase receptor Ret (Homo sapiens) (UniProt P07949). In words: Inhibition of GST tagged recombinant human RET cytoplasmic domain (658 to 1114 residues) expressed in baculovirus at 500 nM by Z'-LYTE assay.
Assay [25] deals with Proto-oncogene tyrosine-protein kinase Src (Homo sapiens) (UniProt P12931). In words: Inhibition of recombinant full length human C-terminal His-tagged SRC expressed in baculovirus at 500 nM by Z'-LYTE assay.
Proto-oncogene tyrosine-protein kinase Src (Homo sapiens), sequence (P12931 2-536 limits assumed): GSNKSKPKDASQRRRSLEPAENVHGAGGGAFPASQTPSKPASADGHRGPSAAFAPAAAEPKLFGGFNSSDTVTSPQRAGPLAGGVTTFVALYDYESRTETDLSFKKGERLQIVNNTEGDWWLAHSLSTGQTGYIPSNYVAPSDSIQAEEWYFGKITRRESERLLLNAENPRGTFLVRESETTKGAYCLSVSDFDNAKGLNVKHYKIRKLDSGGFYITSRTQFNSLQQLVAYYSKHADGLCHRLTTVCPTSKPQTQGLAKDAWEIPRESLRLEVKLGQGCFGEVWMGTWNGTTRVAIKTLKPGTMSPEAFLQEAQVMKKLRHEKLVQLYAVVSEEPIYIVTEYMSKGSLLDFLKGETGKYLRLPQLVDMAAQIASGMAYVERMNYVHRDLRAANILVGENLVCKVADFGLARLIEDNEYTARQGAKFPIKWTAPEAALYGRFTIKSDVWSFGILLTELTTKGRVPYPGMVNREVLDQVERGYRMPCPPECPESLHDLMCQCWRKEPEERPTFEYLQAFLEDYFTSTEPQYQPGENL

Tyrosine-protein kinase Lyn (Homo sapiens), sequence (P07948 2-512 limits assumed): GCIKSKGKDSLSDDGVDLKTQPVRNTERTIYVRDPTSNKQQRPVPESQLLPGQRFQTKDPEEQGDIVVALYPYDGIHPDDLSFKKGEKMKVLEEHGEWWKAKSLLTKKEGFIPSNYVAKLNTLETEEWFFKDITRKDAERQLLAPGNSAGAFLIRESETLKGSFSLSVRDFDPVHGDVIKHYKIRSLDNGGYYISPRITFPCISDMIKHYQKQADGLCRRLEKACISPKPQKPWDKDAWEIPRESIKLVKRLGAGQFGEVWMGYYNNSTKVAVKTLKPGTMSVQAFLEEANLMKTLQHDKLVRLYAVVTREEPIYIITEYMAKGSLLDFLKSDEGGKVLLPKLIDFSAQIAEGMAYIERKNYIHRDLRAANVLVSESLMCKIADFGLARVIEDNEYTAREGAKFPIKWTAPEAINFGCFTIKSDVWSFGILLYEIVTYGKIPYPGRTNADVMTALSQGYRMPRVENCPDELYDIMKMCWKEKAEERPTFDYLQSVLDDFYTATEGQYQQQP
Receptor tyrosine-protein kinase erbB-4 (Homo sapiens), sequence (Q15303 whole entry, the tested form may be a part): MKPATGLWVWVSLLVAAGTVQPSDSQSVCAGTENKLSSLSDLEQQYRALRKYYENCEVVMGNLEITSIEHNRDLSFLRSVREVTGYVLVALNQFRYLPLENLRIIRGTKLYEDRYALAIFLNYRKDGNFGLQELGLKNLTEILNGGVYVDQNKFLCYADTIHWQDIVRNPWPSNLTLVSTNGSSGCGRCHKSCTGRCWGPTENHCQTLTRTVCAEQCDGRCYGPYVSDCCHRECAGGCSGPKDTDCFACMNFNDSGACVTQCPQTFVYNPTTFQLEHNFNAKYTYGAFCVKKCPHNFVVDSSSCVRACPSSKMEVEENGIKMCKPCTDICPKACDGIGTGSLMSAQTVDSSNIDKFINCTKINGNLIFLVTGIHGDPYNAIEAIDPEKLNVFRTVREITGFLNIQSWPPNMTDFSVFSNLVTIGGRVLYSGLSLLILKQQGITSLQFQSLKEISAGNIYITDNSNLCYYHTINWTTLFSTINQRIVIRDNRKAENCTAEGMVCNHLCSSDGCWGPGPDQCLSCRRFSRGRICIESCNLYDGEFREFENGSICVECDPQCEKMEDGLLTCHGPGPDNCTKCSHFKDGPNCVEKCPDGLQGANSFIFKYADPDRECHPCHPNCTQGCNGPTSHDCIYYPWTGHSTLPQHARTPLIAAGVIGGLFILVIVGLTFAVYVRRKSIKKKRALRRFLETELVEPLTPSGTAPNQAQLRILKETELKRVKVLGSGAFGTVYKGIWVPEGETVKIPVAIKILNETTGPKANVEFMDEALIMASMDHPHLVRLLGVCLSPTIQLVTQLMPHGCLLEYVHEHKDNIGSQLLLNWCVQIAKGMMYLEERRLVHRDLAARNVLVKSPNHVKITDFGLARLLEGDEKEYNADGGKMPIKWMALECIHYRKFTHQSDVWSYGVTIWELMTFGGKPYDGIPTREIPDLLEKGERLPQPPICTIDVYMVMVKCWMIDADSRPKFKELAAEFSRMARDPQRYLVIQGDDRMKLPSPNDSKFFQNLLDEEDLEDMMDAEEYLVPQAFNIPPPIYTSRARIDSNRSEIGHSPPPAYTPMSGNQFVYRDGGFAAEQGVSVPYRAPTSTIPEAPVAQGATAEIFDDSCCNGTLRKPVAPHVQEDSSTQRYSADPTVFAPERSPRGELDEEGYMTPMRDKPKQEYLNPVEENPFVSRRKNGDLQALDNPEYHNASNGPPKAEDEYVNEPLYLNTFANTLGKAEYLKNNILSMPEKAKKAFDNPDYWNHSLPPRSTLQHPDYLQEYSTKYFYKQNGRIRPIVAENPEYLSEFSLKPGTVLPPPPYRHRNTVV
Mitogen-activated protein kinase 14 (Homo sapiens), sequence (Q16539 whole entry): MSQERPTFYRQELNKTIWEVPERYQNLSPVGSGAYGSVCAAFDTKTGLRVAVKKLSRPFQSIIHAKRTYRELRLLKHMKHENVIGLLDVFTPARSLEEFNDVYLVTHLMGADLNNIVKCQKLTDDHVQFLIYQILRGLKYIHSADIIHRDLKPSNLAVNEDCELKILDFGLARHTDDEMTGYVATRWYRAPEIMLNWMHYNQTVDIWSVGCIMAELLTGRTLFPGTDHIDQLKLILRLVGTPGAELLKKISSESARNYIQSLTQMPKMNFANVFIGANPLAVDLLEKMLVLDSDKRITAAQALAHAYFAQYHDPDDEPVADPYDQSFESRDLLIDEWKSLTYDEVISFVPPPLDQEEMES

With `C#Cc1cccc(Nc2ncnc3cc(OCCOC)c(OCCOC)cc23)c1`, the results for the inhibition in [1] and in assay [2] were 2% and -2%, respectively.

For the molecule `C[C@@H](Nc1ncnc2oc(-c3ccc(NCCN(C)C)cc3)cc12)c1ccccc1`, the pIC50 (usually −log10 of the IC50, conventionally taken in molar units) in [3] was 9.40. Further, the inhibition (as a rule, the change of the read-out against control, counted positive when it falls) in [4] was 37%; in assay [5], 3%; in assay [6], 8%; in [7] it was 79%; in [8], 12%; in assay [9] it was 23%. Further, the inhibition is 32% in assay [10]; 60% in assay [11]; -2% in [12]; 4% in assay [13]; 31% in assay [14]; 13% in [15]. For the same molecule, the inhibition in assay [16] is -8%; in assay [17] it was 19%; in [18], 35%; in [19], 41%; in assay [20], -3%; in assay [21] it was 15%. Further, the inhibition in [22] is 1%; in assay [23], -3%; in assay [1], -9%; in assay [2], -10%; in [24], 11%; in assay [25], 12%.

Regarding `C[C@@H](Nc1ncnc2oc(-c3ccc(NCCN4CCCCC4)cc3)cc12)c1ccccc1`, in assay [3], the pIC50 is 9.22. The inhibition in assay [4] was determined as 30%; in assay [5], 0%; in [6], 9%; in assay [7], 78%; in [8], 8%; in assay [9], 15%. Also, the inhibition was 18% in assay [10]; 56% in assay [11]; 1% in assay [12]; 4% in [13]; 21% in assay [14]; 12% in assay [15]. In addition, the inhibition was 7% in [17]; 37% in assay [18]; 46% in assay [19]; -1% in [20]; 16% in [21]; 6% in [22]. The inhibition in assay [24] was found to be 11%; in assay [25] it was 17%.
